In publication PMC5486949 (SLAS discovery, 2017):
Counter-ions that a name gives are not always drawn. Like-named read-outs stand apart in the source and are kept apart here. One block for each compound: values may come before it.

Tests used:
ERRα [1] = experiment: ERR luciferase reporter gene assay, agonist mode; format: cell-based, human; details: for AC50 ERR ↑: agonist mode, 0 = inactive or inconclusive; for AC50: read-out: AC50 ERR ↑
PGC-1α/ERRα [2] = experiment: PGC/ERR luciferase reporter gene assay, agonist mode; format: cell-based, human; details: for AC50 PGC-ERR ↑: agonist mode, 0 = inactive or inconclusive; for EC50 / AC50: Homo sapiens; for EC50: read-out: PGC-1α/ERRα (Agonist) EC50; for AC50: read-out: AC50 PGC-ERR ↑
PGC-1α/ERRα [3] = experiment: PGC/ERR luciferase reporter gene assay, antagonist mode; format: cell-based, human; details: for IC50: read-out: PGC-1α/ERRα (Antagonist) IC50; for AC50: read-out: AC50 PGC/ERR ↓
[4] = test system: aryl hydrocarbon receptor (AhR); details: cited from earlier work
ERR cell line (HEK293T) = experiment: Cell viability assay multiplexed with ERR antagonist mode assay; format: cell-based, human; details: read-out: ERRα (Viability) IC50
[5] = test system: PGC/ERR cell line (HEK293T); experiment: Cell viability assay multiplexed with PGC/ERR antagonist mode assay; format: cell-based, human; details: read-out: PGC-1α/ERRα (Viability) IC50
ERRα [6] = experiment: ERR luciferase reporter gene assay, antagonist mode; format: cell-based, human; details: for AC50: read-out: AC50 ERR↓; for IC50: read-out: ERRα (Antagonist) IC50
[7] = test system: ERR and PGC/ERR cell lines; experiment: Cell viability; details: agonist mode, ERR and PGC/ERR lines (Fig. 3A,B)
[8] = read-out: ERRα (Agonist) EC50, LOPAC qHTS, dash = inconclusive or no activity
[9] = Homo sapiens, read-out: ERRα (Agonist) EC50

Compound: Nc1ccc(-c2ccc3ccccc3n2)cc1 [BF-170 hydrochloride]
- AC50 ERR ↑ (ERRα [1]): 5.58 log10(M)*–1
- EC50 (ERRα [1]; [8]): 2.66 µM
- AC50 PGC-ERR ↑ (PGC-1α/ERRα [2]): 5.78 log10(M)*–1

Compound: CCCCC[C@H](CC(=O)NO)C(=O)N[C@H](C(=O)N1CCC[C@H]1CO)C(C)C [Actinonin]
- IC50 (PGC-1α/ERRα [3]; Homo sapiens): 8.91 µM

Compound: 6-Bromoindirubin-3-oxime
- AC50 ERR ↑ (ERRα [1]): 5.78 log10(M)*–1
- EC50 (ERRα [1]; [8]): 1.68 µM
- AC50 PGC-ERR ↑ (PGC-1α/ERRα [2]): 5.93 log10(M)*–1
- AC50 AhR ↑ [4]: 5.48 log10(M)*–1

Compound: CC[n+]1c(/C=C/C=C2/N(C)c3ccccc3C2(C)C)sc2ccccc21 [AC-93253 iodide]
- IC50 (PGC-1α/ERRα [3]): 0.42 µM
- IC50 (ERR cell line (HEK293T)): 8.41 µM
- IC50 [5]: 3.76 µM

Compound: O=c1c(-c2ccc(O)cc2)coc2cc(O)cc(O)c12 [Genistein]
- EC50 (ERRα [1]; Homo sapiens, 18 h, read-out: EC50, ERRα induction, assay optimization, 2000 cells/well, 18 h): 3.33 µM
- EC50 (ERRα [1]; Homo sapiens, 18 h, read-out: EC50, ERRα induction, assay optimization, 3000 cells/well, 18 h): 3.23 µM
- AC50 (ERRα [1]; Homo sapiens): 2.95 µM
- AC50 (PGC-1α/ERRα [2]): 3.31 µM
- cytotoxicity at concentrations of outfitted points of agonist curves [7]: cytotoxicity did not appear to be the direct cause for the outfitted points

Compound: CC(=O)S[C@@H]1CC2=CC(=O)CC[C@]2(C)[C@H]2CC[C@@]3(C)[C@@H](CC[C@@]34CCC(=O)O4)[C@H]12 [Spironolactone]
- AC50 (ERRα [6]; Homo sapiens): 16.6 µM
- IC50 (ERRα [6]; Homo sapiens): 18.8 µM
- AC50 (PGC-1α/ERRα [3]; Homo sapiens): 9.33 µM
- IC50 (PGC-1α/ERRα [3]; Homo sapiens): 9.44 µM

Compound: Brc1c(Br)c(Br)c2[nH]nnc2c1Br [4,5,6,7-Tetrabromobenzo-triazole]
- AC50 (ERRα [6]; Homo sapiens): 20.9 µM
- IC50 (ERRα [6]; Homo sapiens): 18.8 µM
- AC50 (PGC-1α/ERRα [3]; Homo sapiens): 20.9 µM
- IC50 (PGC-1α/ERRα [3]; Homo sapiens): 21.1 µM

Compound: CC1=C(C)C(=O)C(CCCCC#CCCCC#CCO)=C(C)C1=O [AA-861]
- IC50 (ERRα [6]; Homo sapiens): 12.6 µM

Compound: Nc1ccc(N=Nc2ccccc2)cc1 [4-Aminoazobenzene]
- EC50 (ERRα [1]; [9]): 10.9 µM

Compound: Cc1cccc(-c2[nH]ncc2-c2ccc3ncccc3n2)n1 [RepSox]
- AC50 ERR↓ (ERRα [6]): 5.88 log10(M)*–1
- IC50 (ERRα [6]): 1.33 µM
- AC50 PGC/ERR ↓ (PGC-1α/ERRα [3]): 5.93 log10(M)*–1
- IC50 (PGC-1α/ERRα [3]): 1.19 µM

Compound: C/C=C(/C)C(=O)O[C@H]1C(C)=C2[C@H]([C@@H]1OC(=O)CCCCCCC)[C@@](C)(OC(C)=O)C[C@H](OC(=O)CCC)[C@@]1(O)[C@H]2OC(=O)[C@@]1(C)O [Thapsigargin]
- IC50 (ERRα [6]; Homo sapiens): 0.24 µM
- IC50 (ERR cell line (HEK293T); Homo sapiens, HEK-293T): 10.6 µM

Compound: Nc1nccc2c1ncn2[C@@H]1O[C@H](CO)[C@@H](O)[C@H]1O [3-Deazaadenosine]
- IC50 (PGC-1α/ERRα [3]; Homo sapiens): 16.8 µM

Compound: O=C1NC(=O)/C(=C/c2ccc3c(c2)OC(F)(F)O3)S1 [AS 604850]
- EC50 (ERRα [1]; [8]): 3.16 µM

Compound: COc1cc(NS(C)(=O)=O)ccc1Nc1c2ccccc2nc2ccccc12 [Amsacrine hydrochloride]
- IC50 (ERR cell line (HEK293T); Homo sapiens, HEK-293T): 23.7 µM

Compound: Nc1nc(Nc2ccccc2)nc2c1ncn2[C@@H]1O[C@H](CO)[C@@H](O)[C@H]1O [2-Phenylaminoadenosine]
- EC50 (PGC-1α/ERRα [2]): 1.68 µM

Now from value to compound, other results behind:

- EC50 (ERRα [1]; [9]): 9.69 µM
Compound: O=c1cc(-c2ccccc2)oc2ccccc12 [Flavone]

- EC50 (PGC-1α/ERRα [2]): 23.7 µM
Compound: CN(C)S(=O)(=O)c1ccc2c(c1)/C(=C/c1cc3c([nH]1)CCCC3)C(=O)N2 [SU 6656]

- IC50 (ERRα [6]; Homo sapiens): 0.53 µM
- IC50 (PGC-1α/ERRα [3]; Homo sapiens): 0.75 µM
Compound: CO[C@H]1O[C@@H]2O[C@@]3(C)CC[C@H]4[C@H](C)CC[C@@H]([C@H]1C)[C@@]24OO3 [Artemether]
- AC50 (ERRα [6]; Homo sapiens): 0.525 µM
- AC50 (PGC-1α/ERRα [3]; Homo sapiens): 1.05 µM

- EC50 (ERRα [1]; [9]): 8.41 µM
- EC50 (PGC-1α/ERRα [2]): 18.8 µM
Compound: Oc1cc(O)cc(/C=C/c2ccc(O)c(O)c2)c1 [Piceatannol]
- AC50 (ERRα [1]; Homo sapiens): 8.32 µM
- AC50 (PGC-1α/ERRα [2]): 18.6 µM

- IC50 (ERRα [6]; Homo sapiens): 16.8 µM
Compound: COc1cc2c(cc1OC)-c1c/c(=N\c3c(C)cc(C)cc3C)n(C)c(=O)n1CC2 [Trequinsin hydrochloride]

- IC50 (ERRα [6]; Homo sapiens): 10.6 µM
Compound: Oc1ccc(-c2nc(-c3ccncc3)c(-c3ccc(F)cc3)[nH]2)cc1 [SB 202190]

- IC50 (ERRα [6]; Homo sapiens): 15 µM
Compound: C#C[C@]1(O)CC[C@H]2[C@@H]3CCC4=Cc5oncc5C[C@]4(C)[C@H]3CC[C@@]21C [Danazol]

- EC50 (ERRα [1]; [8]): 16.8 µM
Compound: Cc1ccc(S(=O)(=O)/C=C/C#N)cc1 [Bay 11-7082]

- EC50 (ERRα [1]; [9]): 2.98 µM
- EC50 (PGC-1α/ERRα [2]): 1.33 µM
Compound: O=C1Cc2c([nH]c3ccc(Br)cc23)-c2ccccc2N1 [Kenpaullone]
- AC50 (ERRα [1]; Homo sapiens): 2.95 µM
- AC50 (PGC-1α/ERRα [2]): 1.32 µM
- cytotoxicity at concentrations of outfitted points of agonist curves [7]: cytotoxicity did not appear to be the direct cause for the outfitted points

- IC50 (ERRα [6]; Homo sapiens): 2.37 µM
Compound: CC(C)(C)c1cc(/C=C(\C#N)C(N)=S)cc(C(C)(C)C)c1O [Tyrphostin AG 879]

- EC50 (ERRα [1]; [8]): 3.35 µM
Compound: CN(C)c1ccc(C=C2C(=O)Nc3ccccc32)cc1 [SU 4312]

- EC50 (ERRα [1]; [9]): 2.98 µM
Compound: CC[C@H](C)C(=O)O[C@H]1CCC=C2C=C[C@H](C)[C@H](CC[C@@H]3C[C@@H](O)CC(=O)O3)[C@H]21 [Mevastatin]

- IC50 (ERRα [6]; Homo sapiens): 16.8 µM
Compound: Cc1nc2sccn2c(=O)c1CCN1CCC(=C(c2ccc(F)cc2)c2ccc(F)cc2)CC1 [Ritanserin]

- EC50 (ERRα [1]; [9]): 0.75 µM
Compound: NNc1nncc2ccccc12 [Hydralazine hydrochloride]
